Tests used:
Aldehyde oxidase [1] = target: T1, Aldehyde oxidase (Homo sapiens, UniProt Q06278); assay: Substrate activity at aldehyde oxidase in human liver S9 fractions assessed as enzyme-mediated 2-oxo metabolite formation by measuring half life at 1 uM after 10 to 120 mins by liquid chromatography-tandem mass spectrometry; type: ADME, subcellular; details: s9, 1 µM
T1 sequence (Q06278 whole entry): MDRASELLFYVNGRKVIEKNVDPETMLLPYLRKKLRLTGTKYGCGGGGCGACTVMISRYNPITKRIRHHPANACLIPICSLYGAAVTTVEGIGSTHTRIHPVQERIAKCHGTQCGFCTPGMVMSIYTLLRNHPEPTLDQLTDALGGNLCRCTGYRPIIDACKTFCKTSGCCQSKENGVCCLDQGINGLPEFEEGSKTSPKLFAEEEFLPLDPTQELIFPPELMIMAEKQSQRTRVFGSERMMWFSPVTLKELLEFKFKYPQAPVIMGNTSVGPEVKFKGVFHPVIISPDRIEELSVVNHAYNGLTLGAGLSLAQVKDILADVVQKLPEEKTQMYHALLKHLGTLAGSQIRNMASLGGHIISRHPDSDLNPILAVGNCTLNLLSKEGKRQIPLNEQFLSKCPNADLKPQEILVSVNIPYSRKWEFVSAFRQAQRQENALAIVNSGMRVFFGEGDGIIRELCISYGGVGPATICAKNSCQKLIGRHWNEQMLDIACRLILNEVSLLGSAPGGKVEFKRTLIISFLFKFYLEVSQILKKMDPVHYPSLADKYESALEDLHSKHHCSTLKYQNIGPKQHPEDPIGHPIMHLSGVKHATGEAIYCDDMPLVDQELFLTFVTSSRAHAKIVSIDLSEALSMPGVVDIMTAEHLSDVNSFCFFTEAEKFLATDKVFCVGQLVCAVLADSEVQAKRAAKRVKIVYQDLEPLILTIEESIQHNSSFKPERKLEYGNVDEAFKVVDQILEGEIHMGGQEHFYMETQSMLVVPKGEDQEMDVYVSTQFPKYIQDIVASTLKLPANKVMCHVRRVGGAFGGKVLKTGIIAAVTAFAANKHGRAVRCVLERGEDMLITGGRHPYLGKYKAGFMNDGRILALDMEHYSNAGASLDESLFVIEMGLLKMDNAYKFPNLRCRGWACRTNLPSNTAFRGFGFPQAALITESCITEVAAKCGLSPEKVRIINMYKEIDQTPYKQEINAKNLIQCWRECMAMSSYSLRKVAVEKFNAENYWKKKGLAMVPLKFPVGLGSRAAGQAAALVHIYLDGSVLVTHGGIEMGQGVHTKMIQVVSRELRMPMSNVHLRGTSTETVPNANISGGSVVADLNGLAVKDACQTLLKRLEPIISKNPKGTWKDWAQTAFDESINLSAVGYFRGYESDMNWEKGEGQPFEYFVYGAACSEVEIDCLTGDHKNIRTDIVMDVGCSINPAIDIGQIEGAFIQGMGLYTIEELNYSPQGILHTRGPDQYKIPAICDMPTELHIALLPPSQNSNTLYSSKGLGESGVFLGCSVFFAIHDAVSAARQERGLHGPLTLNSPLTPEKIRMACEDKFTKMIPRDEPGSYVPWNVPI

[2] = Oral bioavailability in BDF1 mouse at 25 mg/kg after 2 to 24 hrs by HPLC analysis; type: ADME, organism-based; details: in vivo
[3] = Oral bioavailability in BDF1 mouse at 50 mg/kg after 2 to 24 hrs by HPLC analysis; type: ADME, organism-based; details: in vivo
[4] = Drug level in Beagle dog plasma treated with [14C]momelotinib at 15 mg/kg, po measured up to 12 hrs by liquid scintillation counting; type: ADME, organism-based, Canis lupus familiaris; details: in vivo
Aldehyde oxidase 1 [5] = target: T2, Aldehyde oxidase 1 (Rattus norvegicus, UniProt Q9Z0U5); assay: Drug level in Sprague-Dawley rat plasma treated with [14C]momelotinib assessed as aldehyde oxidase mediated compound formation at 15 mg/kg, po measured up to 48 hrs by liquid scintillation counting; type: ADME, organism-based; details: in vivo
T2 sequence (Q9Z0U5 whole entry): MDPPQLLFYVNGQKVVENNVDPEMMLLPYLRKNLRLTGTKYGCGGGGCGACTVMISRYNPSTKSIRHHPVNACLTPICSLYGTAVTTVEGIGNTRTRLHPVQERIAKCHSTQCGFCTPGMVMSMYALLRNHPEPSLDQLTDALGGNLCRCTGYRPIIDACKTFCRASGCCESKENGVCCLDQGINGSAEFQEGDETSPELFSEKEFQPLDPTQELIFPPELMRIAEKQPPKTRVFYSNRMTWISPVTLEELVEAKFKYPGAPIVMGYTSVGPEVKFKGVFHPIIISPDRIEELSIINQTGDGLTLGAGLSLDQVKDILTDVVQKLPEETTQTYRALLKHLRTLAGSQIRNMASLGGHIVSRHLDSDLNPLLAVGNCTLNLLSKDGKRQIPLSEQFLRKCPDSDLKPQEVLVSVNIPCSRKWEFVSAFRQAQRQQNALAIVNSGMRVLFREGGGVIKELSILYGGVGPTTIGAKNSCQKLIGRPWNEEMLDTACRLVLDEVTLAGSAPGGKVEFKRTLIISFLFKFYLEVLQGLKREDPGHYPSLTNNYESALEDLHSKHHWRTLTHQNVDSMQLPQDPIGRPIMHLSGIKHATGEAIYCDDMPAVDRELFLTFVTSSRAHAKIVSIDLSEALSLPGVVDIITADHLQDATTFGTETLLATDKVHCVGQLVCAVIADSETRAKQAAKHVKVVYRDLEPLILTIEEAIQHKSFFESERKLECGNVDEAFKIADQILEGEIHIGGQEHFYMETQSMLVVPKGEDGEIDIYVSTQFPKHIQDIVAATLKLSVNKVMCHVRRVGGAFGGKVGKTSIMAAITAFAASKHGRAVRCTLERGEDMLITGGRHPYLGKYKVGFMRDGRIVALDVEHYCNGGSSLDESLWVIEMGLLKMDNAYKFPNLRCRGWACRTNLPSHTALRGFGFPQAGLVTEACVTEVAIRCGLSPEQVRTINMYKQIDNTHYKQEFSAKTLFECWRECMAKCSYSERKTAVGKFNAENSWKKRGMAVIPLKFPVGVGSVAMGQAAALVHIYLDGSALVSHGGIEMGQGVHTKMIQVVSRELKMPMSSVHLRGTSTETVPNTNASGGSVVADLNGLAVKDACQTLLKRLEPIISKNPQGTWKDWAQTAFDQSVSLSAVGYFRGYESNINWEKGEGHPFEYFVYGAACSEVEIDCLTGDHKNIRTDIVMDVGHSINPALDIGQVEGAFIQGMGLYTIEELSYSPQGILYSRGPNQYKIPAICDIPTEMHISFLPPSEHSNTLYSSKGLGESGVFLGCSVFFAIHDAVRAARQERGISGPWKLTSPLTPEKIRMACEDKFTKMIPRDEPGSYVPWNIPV

Aldehyde oxidase [6] = target: T1, Aldehyde oxidase; assay: Drug level in human plasma treated with [14C]momelotinib assessed as aldehyde oxidase mediated compound formation at 200 mg, po measured at 24 hrs interval for 504 hrs post dose by liquid scintillation counting; type: ADME, organism-based; details: in vivo
Aldehyde oxidase [7] = target: T1, Aldehyde oxidase; assay: Substrate activity at aldehyde oxidase in human liver cytosol assessed as enzyme-mediated M2 metabolite formation at 10 uM after 90 mins by LC-MS/MS analysis; type: ADME, subcellular
[8] = Drug level in human plasma treated with imrecoxib at 100 mg, po measured up to 96 hrs by UPLC/Q-TOF MS analysis; type: ADME, organism-based; details: in vivo
Aldehyde oxidase 1 [9] = target: T3, Aldehyde oxidase 1 (Cavia porcellus, UniProt H9TB17); assay: Substrate activity at aldehyde oxidase in guinea pig liver cytosol assessed as enzyme-mediated drug uptake at 1 uM; type: ADME, subcellular
T3 sequence (H9TB17 whole entry): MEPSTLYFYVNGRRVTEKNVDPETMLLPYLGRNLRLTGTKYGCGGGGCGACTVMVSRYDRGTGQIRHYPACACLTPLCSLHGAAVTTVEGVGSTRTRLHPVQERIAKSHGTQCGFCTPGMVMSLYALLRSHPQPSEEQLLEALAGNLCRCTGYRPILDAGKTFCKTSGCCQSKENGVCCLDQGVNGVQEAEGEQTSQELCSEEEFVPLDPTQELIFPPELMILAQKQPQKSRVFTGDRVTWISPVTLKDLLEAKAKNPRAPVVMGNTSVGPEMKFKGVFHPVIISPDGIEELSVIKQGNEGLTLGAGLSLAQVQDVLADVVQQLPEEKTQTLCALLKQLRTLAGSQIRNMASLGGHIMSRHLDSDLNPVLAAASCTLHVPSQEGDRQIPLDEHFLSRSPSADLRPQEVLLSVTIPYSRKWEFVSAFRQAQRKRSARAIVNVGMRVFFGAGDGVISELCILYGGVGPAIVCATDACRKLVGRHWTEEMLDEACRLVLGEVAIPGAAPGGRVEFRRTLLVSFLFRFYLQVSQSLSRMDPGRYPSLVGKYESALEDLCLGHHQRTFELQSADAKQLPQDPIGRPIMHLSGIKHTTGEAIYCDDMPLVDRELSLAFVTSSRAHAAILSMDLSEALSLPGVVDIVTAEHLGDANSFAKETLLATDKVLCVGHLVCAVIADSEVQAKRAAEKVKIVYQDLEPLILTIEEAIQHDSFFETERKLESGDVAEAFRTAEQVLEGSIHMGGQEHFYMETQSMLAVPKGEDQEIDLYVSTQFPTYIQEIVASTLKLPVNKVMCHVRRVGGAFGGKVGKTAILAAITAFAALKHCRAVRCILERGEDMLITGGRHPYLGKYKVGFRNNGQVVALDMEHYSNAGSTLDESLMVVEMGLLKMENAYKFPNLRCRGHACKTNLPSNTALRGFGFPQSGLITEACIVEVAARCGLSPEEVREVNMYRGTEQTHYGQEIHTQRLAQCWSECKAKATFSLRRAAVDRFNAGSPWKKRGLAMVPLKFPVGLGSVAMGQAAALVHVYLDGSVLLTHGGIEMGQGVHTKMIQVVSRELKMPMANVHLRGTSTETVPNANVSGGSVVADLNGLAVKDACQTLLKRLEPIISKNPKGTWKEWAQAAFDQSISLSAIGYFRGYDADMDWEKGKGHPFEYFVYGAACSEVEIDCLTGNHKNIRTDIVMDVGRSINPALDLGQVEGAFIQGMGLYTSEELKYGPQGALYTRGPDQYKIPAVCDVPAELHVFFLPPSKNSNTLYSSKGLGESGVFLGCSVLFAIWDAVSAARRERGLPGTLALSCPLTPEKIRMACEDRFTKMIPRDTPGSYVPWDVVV

Aldehyde oxidase [10] = target: T1, Aldehyde oxidase; assay: Substrate activity at aldehyde oxidase in human liver cytosol assessed as enzyme-mediated drug uptake at 1 uM; type: ADME, subcellular
Aldehyde oxidase 1 [11] = target: T2, Aldehyde oxidase 1; assay: Substrate activity at aldehyde oxidase in rat liver cytosol assessed as enzyme-mediated drug uptake at 1 uM; type: ADME, subcellular
Aldehyde oxidase [12] = target: T1, Aldehyde oxidase; assay: Substrate activity at aldehyde oxidase in human hepatocytes assessed as enzyme-mediated drug uptake at 1 uM; type: ADME, cell-based
Cytochrome P450 3A4 [13] = target: T4, Cytochrome P450 3A4 (Homo sapiens, UniProt P08684); assay: Substrate activity at human CYP3A4 assessed as increase in methyl-prednisolone AUC relative to control; type: ADME
Cytochrome P450 3A4 [14] = target: T4, Cytochrome P450 3A4; assay: Substrate activity at human CYP3A4 assessed as increase in midazolam AUC relative to control; type: ADME
Cytochrome P450 3A4 [15] = target: T4, Cytochrome P450 3A4; assay: Substrate activity at human CYP3A4 assessed as increase in atorvastatin AUC relative to control; type: ADME
[16] = Clearance in human plasma; type: ADME, cell-free
[17] = Oral bioavailability in human; type: ADME, organism-based; details: in vivo
Aldehyde oxidase 1 [18] = target: T2, Aldehyde oxidase 1; assay: Substrate activity at aldehyde oxidase in rat liver cytosol assessed as enzyme-mediated drug uptake by mass spectrophotometric analysis; type: ADME, subcellular
Aldehyde oxidase 1 [19] = target: T3, Aldehyde oxidase 1; assay: Substrate activity at aldehyde oxidase in guinea pig liver cytosol assessed as enzyme-mediated drug uptake by mass spectrophotometric analysis; type: ADME, subcellular
Aldehyde oxidase [20] = target: T1, Aldehyde oxidase; assay: Substrate activity at aldehyde oxidase in human liver cytosol assessed as enzyme-mediated drug uptake by mass spectrophotometric analysis; type: ADME, subcellular

T4 sequence (P08684 whole entry): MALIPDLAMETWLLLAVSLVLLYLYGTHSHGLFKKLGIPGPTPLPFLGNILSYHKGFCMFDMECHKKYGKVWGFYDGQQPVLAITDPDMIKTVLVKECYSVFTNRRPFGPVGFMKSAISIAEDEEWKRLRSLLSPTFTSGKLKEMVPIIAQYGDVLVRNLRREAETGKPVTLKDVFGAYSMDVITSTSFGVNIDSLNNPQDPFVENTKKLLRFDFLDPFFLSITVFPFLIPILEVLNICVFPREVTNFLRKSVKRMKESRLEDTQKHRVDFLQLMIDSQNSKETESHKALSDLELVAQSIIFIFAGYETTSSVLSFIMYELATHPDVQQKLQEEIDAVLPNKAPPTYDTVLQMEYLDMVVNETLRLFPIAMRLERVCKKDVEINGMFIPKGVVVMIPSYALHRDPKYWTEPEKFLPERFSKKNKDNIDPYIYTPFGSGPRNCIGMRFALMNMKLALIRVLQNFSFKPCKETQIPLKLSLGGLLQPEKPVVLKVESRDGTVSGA

N=C(N)NC(=O)c1cnn(-c2ccc3ncccc3c2)c1C1CC1
t1/2 (Aldehyde oxidase [1]): < 0.083 h

Oc1ncc(F)cn1
bioavailability [2]: 100% | bioavailability [3]: 78%

N#CCNC(=O)c1ccc(-c2ccnc(Nc3ccc(N4CCOCC4=O)cc3)n2)cc1
Drug uptake [4]: < 10% | Drug uptake (Aldehyde oxidase 1 [5]): < 10% | Drug uptake (Aldehyde oxidase [6]): 64.2%

COCCc1c(C(=O)NC(=N)N)cnn1-c1cccc2ncccc12
t1/2 (Aldehyde oxidase [1]): 2 h

CCCN1CC(c2ccc(S(C)(=O)=O)cc2)=C(c2ccc(C=O)cc2)C1=O
Activity (Aldehyde oxidase [7]): 77%

CCCN1CC(c2ccc(S(C)(=O)=O)cc2)=C(c2ccc(C(=O)O)cc2)C1=O
Drug uptake [8]: 68%

CCNC(=O)OC1CCN(c2nncc3cc(OC)c(OC)cc23)CC1 [CARBAZERAN]
K (Aldehyde oxidase 1 [9]): 3.6 to 6.1 | K (Aldehyde oxidase [10]): 3.6 to 6.1 | K (Aldehyde oxidase 1 [11]): 3.6 to 6.1 | K (Aldehyde oxidase [12]): 1.5

CC[C@@](C)(Nc1ccnc(-c2c[nH]c3ncccc23)n1)C(=O)NCC(F)(F)F [DECERNOTINIB]
fold change (FC) (Cytochrome P450 3A4 [13]): 4.3 | fold change (FC) (Cytochrome P450 3A4 [14]): 12 | fold change (FC) (Cytochrome P450 3A4 [15]): 2.7

Cn1cc(-c2ccc3nnc(C(F)(F)c4ccc5ncccc5c4)n3n2)cn1 [JNJ-38877605]
clearance [16]: 12 mL/min/kg

Nc1nc2c(ncn2CCC(CO)CO)c(=O)[nH]1 [PENCICLOVIR]
bioavailability [17]: 77%

c1ccc2cnncc2c1 [PHTHALAZINE]
K (Aldehyde oxidase 1 [18]): 4.7 to 5.1 | K (Aldehyde oxidase 1 [19]): 4.7 to 5.1 | K (Aldehyde oxidase [20]): 4.7 to 5.1

c1ccc2ncccc2c1 [QUINOLINE]
K (Aldehyde oxidase 1 [9]): 3.6 to 6.1 | K (Aldehyde oxidase [10]): 3.6 to 6.1 | K (Aldehyde oxidase 1 [11]): 3.6 to 6.1

c1ccc2nccnc2c1 [QUINOXALINE]
K (Aldehyde oxidase 1 [18]): 4.7 to 5.1 | K (Aldehyde oxidase 1 [19]): 4.7 to 5.1 | K (Aldehyde oxidase [20]): 4.7 to 5.1

N=C(N)NC(=O)c1cnn(-c2cccc3ncccc23)c1C1CC1 [ZONIPORIDE]
K (Aldehyde oxidase 1 [9]): 3.6 to 6.1 | K (Aldehyde oxidase [10]): 3.6 to 6.1 | K (Aldehyde oxidase 1 [11]): 3.6 to 6.1 | K (Aldehyde oxidase [12]): 1.9
